Experimental data from US9914722B2, “Compounds for treating spinal muscular atrophy” (PTC Therapeutics Inc., priority 2012, dated 2018).

What was measured:
[1] = test system: full length SMN2 minigene mRNA containing SMN2 exon 7 (SMN2-A minigene); test: SMN2 minigene mRNA splicing RT-qPCR assay in cultured cells; assay type: cell-based, human; conditions: Homo sapiens, HEK293-H; HEK293H cells stably transfected with SMN2-A minigene, 24 hours, 7-point concentration curve; concentration giving 1.5-fold SMN2 full length mRNA vs vehicle; read-out: EC1.5x for production of full length SMN2 mRNA
Procedure, shortened: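 HEK293H cells stably carrying the SMN2-A minigene were treated 24 h at 37 °C with a 7-point, 3.16-fold test compound series, in duplicate. Multiplex RT-qPCR measured exon 7-containing minigene FL mRNA, normalized to GAPDH and expressed relative to vehicle; EC1.5x is the concentration giving 1.5-fold FL mRNA.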

Smn protein = Smn protein assay (Smn HTRF) in cultured cells; assay type: cell-based, human; conditions: Homo sapiens, Fibroblast, GM03813 SMA Type 1 patient fibroblasts, 48 hours, HTRF; for maximal fold induction: 7-point concentration data, relative to vehicle, read-out: maximum fold (Fold) increase of Smn protein; for EC (1.5-fold): concentration producing 1.5 times Smn protein vs DMSO vehicle, read-out: EC1.5x for Smn protein expression
Procedure, shortened: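 SMA patient fibroblasts (5,000/well) were exposed to a 7-point, 3.16-fold compound dilution series for 48 hours at 37° C, in triplicate. Lysates were read by HTRF with anti-SMN d2/kryptate at 665/620 nm. Blank-corrected signal was expressed as fold over DMSO vehicle, giving the EC1.5x and the maximum fold increase.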

melting point	Compound	EC (1.5-fold) [1]	maximal fold induction (Smn protein)	EC (1.5-fold) (Smn protein)
206 to 208 °C	COc1ccc(-c2cc(=O)c3cc(N4C[C@@H](C)N[C@@H](C)C4)ccc3o2)cc1OC [Cpd 24, 2-(3,4-dimethoxyphenyl)-6-[(3R,5S)-3,5-dimethylpiperazin-1-yl]-4H-chromen-4-one]	0.3 to 1 µM	> 1.65	1 to 3 µM
170 to 172 °C	C[C@H]1CN(c2ccc3oc(-c4cccc(F)c4)cc(=O)c3c2)CCN1 [Cpd 77, 2-(3-fluorophenyl)-6-[(3S)-3-methylpiperazin-1-yl]-4H-chromen-4-one]	0.1 to 0.3 µM	1.5 to 1.65	0.3 to 1 µM
152 to 154 °C	COc1ccc(-c2cc(=O)c3cc(N4CCCNCC4)ccc3o2)cc1OC [Cpd 25, 6-(1,4-diazepan-1-yl)-2-(3,4-dimethoxyphenyl)-4H-chromen-4-one]	3 to 30 µM	1.35 to 1.5	–
181 to 183 °C	COc1ccc(-c2cc(=O)c3cc(N4CCN[C@H](C)C4)ccc3o2)cc1OC [Cpd 23, 2-(3,4-dimethoxyphenyl)-6-[(3R)-3-methylpiperazin-1-yl]-4H-chromen-4-one]	0.1 to 0.3 µM	1.5 to 1.65	0.3 to 1 µM
172 to 174 °C	COc1ccc(-c2cc(=O)c3cc(N4CCN[C@@H](C)C4)ccc3o2)cc1OC [Cpd 31, 2-(3,4-dimethoxyphenyl)-6-[(3S)-3-methylpiperazin-1-yl]-4H-chromen-4-one]	≤ 0.1 µM	> 1.65	≤ 0.3 µM
188 to 190 °C	CCN1CCN(c2ccc3oc(-c4ccc(OC)c(OC)c4)cc(=O)c3c2)CC1 [Cpd 22, 2-(3,4-dimethoxyphenyl)-6-(4-ethylpiperazin-1-yl)-4H-chromen-4-one]	0.3 to 1 µM	> 1.65	1 to 3 µM
180 to 182 °C	COc1cc(F)c(-c2cc(=O)c3cc(N4CCN[C@H](C)C4)ccc3o2)cc1OC [Cpd 48, 2-(2-fluoro-4,5-dimethoxyphenyl)-6-[(3R)-3-methylpiperazin-1-yl]-4H-chromen-4-one]	1 to 3 µM	1.5 to 1.65	1 to 3 µM
164 to 166 °C	COc1ccc(-c2cc(=O)c3cc(N4CCN[C@H](C)C4)ccc3o2)cc1C [Cpd 54, 2-(4-methoxy-3-methylphenyl)-6-[(3R)-3-methylpiperazin-1-yl]-4H-chromen-4-one]	0.3 to 1 µM	1.2 to 1.35	–
155 to 160 °C	COc1ccc(-c2cc(=O)c3cc(N4CCN[C@@H](C)C4)ccc3o2)cc1 [Cpd 63, 2-(4-methoxyphenyl)-6-[(3S)-3-methylpiperazin-1-yl]-4H-chromen-4-one]	0.1 to 0.3 µM	1.5 to 1.65	0.3 to 1 µM
128 to 130 °C	CC(C)Oc1ccc(-c2cc(=O)c3cc(N4CCN[C@@H](C)C4)ccc3o2)cc1 [Cpd 50, 6-[(3S)-3-methylpiperazin-1-yl]-2-[4-(propan-2-yloxy)phenyl]-4H-chromen-4-one]	1 to 3 µM	≤ 1.2	–
110 to 112 °C	COc1ccc(-c2cc(=O)c3cc(N4CCN[C@H](C)C4)ccc3o2)cc1F [Cpd 40, 2-(3-fluoro-4-methoxyphenyl)-6-[(3R)-3-methylpiperazin-1-yl]-4H-chromen-4-one]	0.1 to 0.3 µM	1.35 to 1.5	1 to 3 µM

More lines, now with the values behind:

Compound	melting point	EC (1.5-fold) [1]	maximal fold induction (Smn protein)	EC (1.5-fold) (Smn protein)
COc1cc(F)c(-c2cc(=O)c3cc(N4CCNCC4)ccc3o2)cc1OC [Cpd 45, 2-(2-fluoro-4,5-dimethoxyphenyl)-6-(piperazin-1-yl)-4H-chromen-4-one]	130 to 132 °C	1 to 3 µM	1.2 to 1.35	–
CC1(C)CN(c2ccc3oc(-c4cccnc4)cc(=O)c3c2)CCN1 [Cpd 10, 6-(3,3-dimethylpiperazin-1-yl)-2-(pyridin-3-yl)-4H-chromen-4-one]	140 to 142 °C	1 to 3 µM	1.35 to 1.5	–
CN1CCCN(c2ccc3oc(-c4cccnc4)cc(=O)c3c2)CC1 [Cpd 5, 6-(4-methyl-1,4-diazepan-1-yl)-2-(pyridin-3-yl)-4H-chromen-4-one]	136 to 138 °C	3 to 30 µM	1.2 to 1.35	–
C[C@H]1CN(c2ccc3oc(-c4cncc(F)c4)cc(=O)c3c2)CCN1 [Cpd 75, 2-(5-fluoropyridin-3-yl)-6-[(3S)-3-methylpiperazin-1-yl]-4H-chromen-4-one]	168 to 172 °C	0.3 to 1 µM	1.5 to 1.65	1 to 3 µM
COc1ccc(-c2cc(=O)c3cc(N4CCNCC4)ccc3o2)cc1 [Cpd 62, 2-(4-methoxyphenyl)-6-(piperazin-1-yl)-4H-chromen-4-one]	166 to 170 °C	0.1 to 0.3 µM	1.2 to 1.35	–
C[C@@H]1CN(c2ccc3oc(-c4nc5ccccc5s4)cc(=O)c3c2)CCN1 [Cpd 33, 2-(1,3-benzothiazol-2-yl)-6-[(3R)-3-methylpiperazin-1-yl]-4H-chromen-4-one]	142 to 144 °C	1 to 3 µM	1.2 to 1.35	–
C[C@@H]1CN(c2ccc3oc(-c4cn5ccccc5n4)cc(=O)c3c2)CCN1 [Cpd 16, 2-(imidazo[1,2-a]pyridin-2-yl)-6-[(3R)-3-methylpiperazin-1-yl]-4H-chromen-4-one]	210 to 215 °C	1 to 3 µM	> 1.65	1 to 3 µM
C[C@H]1CN(c2ccc3oc(-c4ccc(OC(F)(F)F)cc4)cc(=O)c3c2)CCN1 [Cpd 65, 6-[(3S)-3-methylpiperazin-1-yl]-2-[4-(trifluoromethoxy)phenyl]-4H-chromen-4-one]	138 to 140 °C	1 to 3 µM	≤ 1.2	–
C[C@@H]1CN(c2ccc3oc(-c4ccccn4)cc(=O)c3c2)CCN1 [Cpd 15, 6-[(3R)-3-methylpiperazin-1-yl]-2-(pyridin-2-yl)-4H-chromen-4-one]	140 to 142 °C	1 to 3 µM	1.5 to 1.65	3 to 10 µM
Cc1ccn2cc(-c3cc(=O)c4cc(N5C[C@@H](C)N[C@@H](C)C5)ccc4o3)nc2c1 [Cpd 30, 6-[(3R,5S)-3,5-dimethylpiperazin-1-yl]-2-(7-methylimidazo[1,2-a]pyridin-2-yl)-4H-chromen-4-one]	102 to 104 °C	1 to 3 µM	1.2 to 1.35	–
Cc1ccn2cc(-c3cc(=O)c4cc(N5CCNCC5)ccc4o3)nc2c1 [Cpd 28, 2-(7-methylimidazo[1,2-a]pyridin-2-yl)-6-(piperazin-1-yl)-4H-chromen-4-one]	228 to 232 °C	1 to 3 µM	> 1.65	3 to 10 µM
Cc1csc(-c2cc(=O)c3cc(N4CCNCC4)ccc3o2)n1 [Cpd 76, 2-(4-methyl-1,3-thiazol-2-yl)-6-(piperazin-1-yl)-4H-chromen-4-one]	179 to 182 °C	0.3 to 1 µM	1.5 to 1.65	1 to 3 µM
O=c1cc(-c2nc3ccccc3s2)oc2ccc(N3CCNCC3)cc12 [Cpd 32, 2-(1,3-benzothiazol-2-yl)-6-(piperazin-1-yl)-4H-chromen-4-one]	250 to 254 °C	1 to 3 µM	1.2 to 1.35	–
O=c1cc(-c2ccc(OC(F)(F)F)cc2)oc2ccc(N3CCNCC3)cc12 [Cpd 64, 6-(piperazin-1-yl)-2-[4-(trifluoromethoxy)phenyl]-4H-chromen-4-one]	146 to 148 °C	0.3 to 1 µM	≤ 1.2	–
COc1cc(F)c(-c2cc(=O)c3cc(N4C[C@@H](C)N[C@@H](C)C4)ccc3o2)cc1OC [Cpd 47, 6-[(3R,5S)-3,5-dimethylpiperazin-1-yl]-2-(2-fluoro-4,5-dimethoxyphenyl)-4H-chromen-4-one]	164 to 166 °C	1 to 3 µM	1.5 to 1.65	1 to 3 µM
C[C@@H]1CN(c2ccc3oc(-c4nc5ccccc5s4)cc(=O)c3c2)C[C@H](C)N1 [Cpd 34, 2-(1,3-benzothiazol-2-yl)-6-[(3R,5S)-3,5-dimethylpiperazin-1-yl]-4H-chromen-4-one]	200 to 202 °C	0.3 to 1 µM	1.35 to 1.5	–
Cc1ccn2cc(-c3cc(=O)c4cc(N5CCN[C@H](C)C5)ccc4o3)nc2c1 [Cpd 29, 2-(7-methylimidazo[1,2-a]pyridin-2-yl)-6-[(3R)-3-methylpiperazin-1-yl]-4H-chromen-4-one]	150 to 155 °C	3 to 30 µM	1.35 to 1.5	3 to 10 µM
COc1ccc(-c2cc(=O)c3cc(N4CCNCC4)ccc3o2)cn1 [Cpd 55, 2-(6-methoxypyridin-3-yl)-6-(piperazin-1-yl)-4H-chromen-4-one]	165 to 170 °C	0.3 to 1 µM	1.2 to 1.35	–
